Test system: 935938-334-R-J1-PDC spheroids with HUVEC/MSC, viability
Test: Anticancer human tumor 935938-334-R-J1-PDC patient-derived small intestine adenocarcinoma cell line growth inhibition [PI3K]
Conditions: for viability, T/C: stronger effect = lower value
Outline: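 Multi-cell spheroids combine tumor cells with HUVEC and human MSCs, treated with targeted agents alone or with inavolisib, alpelisib, duvelisib or copanlisib. Concentrations fall in half-log steps from at or near clinical Cmax, or from 10 microM where Cmax is unknown; viability read-out.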

[1] = curve of first compound, second compound 0.00316 µM
[2] = curve of first compound, second compound 0.01 µM
[3] = curve of first compound, second compound 0.0316 µM
[4] = curve of first compound, second compound 0.1 µM
[5] = curve of first compound, second compound 0.316 µM
[6] = curve of first compound, second compound 1 µM
[7] = second compound 0.00316 µM, first compound 0.000316 µM
[8] = second compound 0.00316 µM, first compound 0.001 µM
[9] = second compound 0.00316 µM, first compound 0.00316 µM
[10] = second compound 0.00316 µM, first compound 0.01 µM
[11] = second compound 0.00316 µM, first compound 0.0316 µM
[12] = second compound 0.00316 µM, first compound 0.1 µM
[13] = second compound 0.01 µM, first compound 0.000316 µM
[14] = second compound 0.01 µM, first compound 0.001 µM
[15] = second compound 0.01 µM, first compound 0.00316 µM
[16] = second compound 0.01 µM, first compound 0.01 µM
[17] = second compound 0.01 µM, first compound 0.0316 µM
[18] = second compound 0.01 µM, first compound 0.1 µM
[19] = second compound 0.0316 µM, first compound 0.000316 µM
[20] = second compound 0.0316 µM, first compound 0.001 µM
[21] = second compound 0.0316 µM, first compound 0.00316 µM
[22] = second compound 0.0316 µM, first compound 0.01 µM
[23] = second compound 0.0316 µM, first compound 0.0316 µM
[24] = second compound 0.0316 µM, first compound 0.1 µM
[25] = second compound 0.1 µM, first compound 0.000316 µM
[26] = second compound 0.1 µM, first compound 0.001 µM
[27] = second compound 0.1 µM, first compound 0.00316 µM
[28] = second compound 0.1 µM, first compound 0.01 µM
[29] = second compound 0.1 µM, first compound 0.0316 µM
[30] = second compound 0.1 µM, first compound 0.1 µM
[31] = second compound 0.316 µM, first compound 0.000316 µM
[32] = second compound 0.316 µM, first compound 0.001 µM
[33] = second compound 0.316 µM, first compound 0.00316 µM
[34] = second compound 0.316 µM, first compound 0.01 µM
[35] = second compound 0.316 µM, first compound 0.0316 µM
[36] = second compound 0.316 µM, first compound 0.1 µM
[37] = second compound 1 µM, first compound 0.000316 µM
[38] = second compound 1 µM, first compound 0.001 µM
[39] = second compound 1 µM, first compound 0.00316 µM
[40] = second compound 1 µM, first compound 0.01 µM
[41] = second compound 1 µM, first compound 0.0316 µM
[42] = second compound 1 µM, first compound 0.1 µM
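Note: compound exposure lasted seven days before viability was read.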
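Throughout, for viability, T/C: percent of vehicle DMSO treated spheroid viability so 100% = untreated.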

## CC(=O)c1c(C)c2cnc(Nc3ccc(N4CCNCC4)cn3)nc2n(C2CCCC2)c1=O + COc1c(OCCCN2CCOCC2)ccc2c3n(c(=NC(=O)c4cnc(N)nc4)nc12)CCN3
[1]
  IC50: > 100 nM
[2]
  IC50: > 100 nM
[3]
  IC50: > 100 nM
[4]
  IC50: 0.621 nM
[5]
  IC50: < 0.316 nM
[6]
  IC50: < 0.316 nM
[7]
  viability, T/C: 94.8%
[8]
  viability, T/C: 98.7%
[9]
  viability, T/C: 80.2%
[10]
  viability, T/C: 113%
[11]
  viability, T/C: 110%
[12]
  viability, T/C: 57.4%
[13]
  viability, T/C: 99.7%
[14]
  viability, T/C: 90.8%
[15]
  viability, T/C: 80.4%
[16]
  viability, T/C: 90.1%
[17]
  viability, T/C: 78.4%
[18]
  viability, T/C: 56.3%
[19]
  viability, T/C: 81.8%
[20]
  viability, T/C: 74.7%
[21]
  viability, T/C: 68.3%
[22]
  viability, T/C: 63.2%
[23]
  viability, T/C: 63.8%
[24]
  viability, T/C: 48.6%
[25]
  viability, T/C: 54.4%
[26]
  viability, T/C: 48.6%
[27]
  viability, T/C: 37.9%
[28]
  viability, T/C: 42%
[29]
  viability, T/C: 39.7%
[30]
  viability, T/C: 35.6%
[31]
  viability, T/C: 39.9%
[32]
  viability, T/C: 32.6%
[33]
  viability, T/C: 29.2%
[34]
  viability, T/C: 33.3%
[35]
  viability, T/C: 27.9%
[36]
  viability, T/C: 35.3%
[37]
  viability, T/C: 38.4%
[38]
  viability, T/C: 35.2%
[39]
  viability, T/C: 35.3%
[40]
  viability, T/C: 39.6%
[41]
  viability, T/C: 30.2%
[42]
  viability, T/C: 31%

## Cn1ncnc1[C@H]1c2n[nH]c(=O)c3cc(F)cc(c23)N[C@@H]1c1ccc(F)cc1 + CC(Nc1ccc2c(c1)OCCn1cc(N3C(=O)OCC3C(F)F)nc1-2)C(N)=O
[1]
  IC50: > 100 nM
[2]
  IC50: > 100 nM
[3]
  IC50: > 100 nM
[4]
  IC50: > 100 nM
[5]
  IC50: > 100 nM
[6]
  IC50: 10 nM
[7]
  viability, T/C: 87.1%
[8]
  viability, T/C: 99.8%
[9]
  viability, T/C: 102%
[10]
  viability, T/C: 87.2%
[11]
  viability, T/C: 78.6%
[12]
  viability, T/C: 78.2%
[13]
  viability, T/C: 79.6%
[14]
  viability, T/C: 83.4%
[15]
  viability, T/C: 112%
[16]
  viability, T/C: 87.5%
[17]
  viability, T/C: 73.7%
[18]
  viability, T/C: 95.7%
[19]
  viability, T/C: 84.6%
[20]
  viability, T/C: 102%
[21]
  viability, T/C: 84.2%
[22]
  viability, T/C: 67.9%
[23]
  viability, T/C: 80.6%
[24]
  viability, T/C: 103%
[25]
  viability, T/C: 88.1%
[26]
  viability, T/C: 102%
[27]
  viability, T/C: 95.3%
[28]
  viability, T/C: 79.7%
[29]
  viability, T/C: 93.3%
[30]
  viability, T/C: 78.2%
[31]
  viability, T/C: 70.5%
[32]
  viability, T/C: 94.3%
[33]
  viability, T/C: 82.2%
[34]
  viability, T/C: 91.3%
[35]
  viability, T/C: 62.4%
[36]
  viability, T/C: 85.8%
[37]
  viability, T/C: 67.6%
[38]
  viability, T/C: 72%
[39]
  viability, T/C: 45.1%
[40]
  viability, T/C: 44.5%
[41]
  viability, T/C: 61.3%
[42]
  viability, T/C: 51%

## CCN1CCN(Cc2ccc(Nc3ncc(F)c(-c4cc(F)c5nc(C)n(C(C)C)c5c4)n3)nc2)CC1
Compound 0.01 µM
  viability, T/C: 89.4% [middle of 4 runs]
Compound 0.316 µM
  viability, T/C: 49.4% [middle of 4 runs]
Curve of compound
  IC50: 269 nM [middle of 4 runs]

## Cn1nccc1Nc1nccc(-c2ccn(C(CO)c3ccc(Cl)c(F)c3)c(=O)c2)n1 (stereo unspecified) + COc1c(OCCCN2CCOCC2)ccc2c3n(c(=NC(=O)c4cnc(N)nc4)nc12)CCN3
[1]
  IC50: 1380 nM
[2]
  IC50: 1500 nM
[3]
  IC50: 566 nM
[4]
  IC50: < 31.6 nM
[5]
  IC50: < 31.6 nM
[6]
  IC50: < 31.6 nM
[11]
  viability, T/C: 81.5%
[12]
  viability, T/C: 99.5%
Second compound 0.00316 µM, first compound 0.316 µM
  viability, T/C: 54.7%
Second compound 0.00316 µM, first compound 1 µM
  viability, T/C: 58.4%
Second compound 0.00316 µM, first compound 3.16 µM
  viability, T/C: 41.4%
Second compound 0.00316 µM, first compound 10 µM
  viability, T/C: 25.2%
[17]
  viability, T/C: 85.7%
[18]
  viability, T/C: 77.8%
Second compound 0.01 µM, first compound 0.316 µM
  viability, T/C: 68.9%
Second compound 0.01 µM, first compound 1 µM
  viability, T/C: 55.6%
Second compound 0.01 µM, first compound 3.16 µM
  viability, T/C: 39.9%
Second compound 0.01 µM, first compound 10 µM
  viability, T/C: 28%
[23]
  viability, T/C: 58.8%
[24]
  viability, T/C: 76.7%
Second compound 0.0316 µM, first compound 0.316 µM
  viability, T/C: 49.2%
Second compound 0.0316 µM, first compound 1 µM
  viability, T/C: 46.1%
Second compound 0.0316 µM, first compound 3.16 µM
  viability, T/C: 33.5%
Second compound 0.0316 µM, first compound 10 µM
  viability, T/C: 28%
[29]
  viability, T/C: 49.4%
[30]
  viability, T/C: 39.6%
Second compound 0.1 µM, first compound 0.316 µM
  viability, T/C: 40.1%
Second compound 0.1 µM, first compound 1 µM
  viability, T/C: 28%
Second compound 0.1 µM, first compound 3.16 µM
  viability, T/C: 18.1%
Second compound 0.1 µM, first compound 10 µM
  viability, T/C: 20.6%
[35]
  viability, T/C: 36.4%
[36]
  viability, T/C: 32%
Second compound 0.316 µM, first compound 0.316 µM
  viability, T/C: 22.3%
Second compound 0.316 µM, first compound 1 µM
  viability, T/C: 22.4%
Second compound 0.316 µM, first compound 3.16 µM
  viability, T/C: 21.7%
Second compound 0.316 µM, first compound 10 µM
  viability, T/C: 23%
[41]
  viability, T/C: 34.6%
[42]
  viability, T/C: 27%
Second compound 1 µM, first compound 0.316 µM
  viability, T/C: 25.1%
Second compound 1 µM, first compound 1 µM
  viability, T/C: 23.9%
Second compound 1 µM, first compound 3.16 µM
  viability, T/C: 19.5%
Second compound 1 µM, first compound 10 µM
  viability, T/C: 17.9%

## Cn1ncnc1[C@H]1c2n[nH]c(=O)c3cc(F)cc(c23)N[C@@H]1c1ccc(F)cc1 + Cc1nc(NC(=O)N2CCCC2C(N)=O)sc1-c1ccnc(C(C)(C)C(F)(F)F)c1
[3]
  IC50: > 100 nM
[4]
  IC50: > 100 nM
[5]
  IC50: > 100 nM
[6]
  IC50: > 100 nM
Curve of first compound, second compound 3.16 µM
  IC50: 16.1 nM
Curve of first compound, second compound 10 µM
  IC50: < 0.316 nM
[19]
  viability, T/C: 83.6%
[20]
  viability, T/C: 95.8%
[21]
  viability, T/C: 112%
[22]
  viability, T/C: 87.8%
[23]
  viability, T/C: 72.1%
[24]
  viability, T/C: 99%
[25]
  viability, T/C: 81%
[26]
  viability, T/C: 98.7%
[27]
  viability, T/C: 99.9%
[28]
  viability, T/C: 67.5%
[29]
  viability, T/C: 84.2%
[30]
  viability, T/C: 83.5%
[31]
  viability, T/C: 89.1%
[32]
  viability, T/C: 67.3%
[33]
  viability, T/C: 78%
[34]
  viability, T/C: 61.4%
[35]
  viability, T/C: 69.7%
[36]
  viability, T/C: 78.7%
[37]
  viability, T/C: 62.2%
[38]
  viability, T/C: 70%
[39]
  viability, T/C: 67.2%
[40]
  viability, T/C: 57.6%
[41]
  viability, T/C: 60%
[42]
  viability, T/C: 55.4%
Second compound 3.16 µM, first compound 0.000316 µM
  viability, T/C: 63.1%
Second compound 3.16 µM, first compound 0.001 µM
  viability, T/C: 53.7%
Second compound 3.16 µM, first compound 0.00316 µM
  viability, T/C: 46.6%
Second compound 3.16 µM, first compound 0.01 µM
  viability, T/C: 58.2%
Second compound 3.16 µM, first compound 0.0316 µM
  viability, T/C: 51.7%
Second compound 3.16 µM, first compound 0.1 µM
  viability, T/C: 42%
Second compound 10 µM, first compound 0.000316 µM
  viability, T/C: 39%
Second compound 10 µM, first compound 0.001 µM
  viability, T/C: 38.7%
Second compound 10 µM, first compound 0.00316 µM
  viability, T/C: 43.8%
Second compound 10 µM, first compound 0.01 µM
  viability, T/C: 33%
Second compound 10 µM, first compound 0.0316 µM
  viability, T/C: 50.5%
Second compound 10 µM, first compound 0.1 µM
  viability, T/C: 38.5%
